Measurements from US10213425B2, “Role of N-2-hydroxy-ethyl-piperazine-N′-2-ethane sulfonic acid (HEPES) in pain control and reversal of demyelinization injury” (Bespoke Bioscience, LLC, priority 2009, dated 2019).

Columns and labels:
[1] = test system: Pediatric Autoimmune Neurological Disease Associated with Strep (PANDAS); test: Clinical case, Pediatric Autoimmune Neurological Disease Associated with Strep (PANDAS) (Example 7); type: in vivo, human; conditions: for frequency of athetotic movements: intravenous
[2] = test system: cell cultures of both animal and human origin; conditions: studies not specified; cited from earlier work
[3] = test system: Chronic Inflammatory Demyelinating Polyradiculoneuropathy (CIDP); test: Clinical case, Chronic Inflammatory Demyelinating Polyradiculoneuropathy (Example 9); type: in vivo, human; conditions: daily oral product, after three weeks
Excerpt: patient three is a person who presents with a history of multiple allergies, infections (including viral meningitis/aseptic encephalitis), multiple episodes of antibiotic treatments, etc. They describe their physical status historically as follows: “I have been seriously ill since 1991 with progressive neurologic deficits, which culminated with significant loss of motor control in 1993. The condition was misdiagnosed as Multiple Sclerosis with negative findings on Mill.” They initially ambulated slowly with the use of a cane. In 1994 they were paralyzed from the neck down. They were treated with Ig intravenously and recovered over a period of weeks. Five months later, they experienced a similar episode. This time the Ig therapy was only weakly helpful, and they as treated with therapeutic plasma exchanges every two weeks. They have recently been experiencing significant pains in their extremities and HEPES was started orally both for pain control and possible reinforcement of any myelinating defects, as our medical colleagues in the Netherlands have had significant success in reversing the demyelination process.

[4] = test system: Multiple Sclerosis; test: Clinical case, Multiple Sclerosis patient (Example 1); type: in vivo, human; conditions: MS patient
Excerpt: patient four is a public elementary school teacher, who was diagnosed with MS when they were […].
Mentally, they often experienced periods of lack of concentration and follow-through of immediate projects, generalized muscular stiffness and lack of fine motor coordination with episodes of lurching gait and imbalance. Very bothersome was their manual discoordination which adversely influenced their writing on the chalk board. Indeed, the symptoms were so frequent that their teaching contract was not renewed. They subsequently obtained employment at an academically excellent small Episcopal school where the classes were small and the stress level was considerably less compared with the public school system.
Despite these changes of venue, they had more frequent exacerbations and remissions and experienced multiple medication programs with their very concerned neurologist physician. They continued to use block letters on the blackboard rather than cursive black-board writing as a form of communicating with their students.
After a particularly severe episode of problems, they completely lost the ability to write (e.g., writing a payment check) owing to the loss of manual sensory function and erratic motor movements. The present inventors were asked to see them by the school administrator, who served as their friend and confidant. […]

[5] = test system: Parkinson's Disease; test: Clinical cases, Parkinson's Disease patients (Examples 4 and 5); type: in vivo, human
Excerpt: […] The family history is positive. They have been tried on a variety of Parkinsonian medications, the beneficial actions of which seem to disappear within a few months.
The hand tremor was present only to a small degree, but the head tremors and tics were very prominent to the degree that […] would become nauseated if […] kept […] vision pinpointed.
patient one is a person who has had Parkinsonian symptoms since they were […]. They were placed on levo-dopa with gradual increases to six per day along with large doses of Mirapex and polyethylene glycol for their problem with constipation. Their constipation was really quite intractable with abdominal distention and protrusion, nausea and vomiting. Also very worrisome was their diminished deglutitionary activity and tongue biting with oral bleeding. They were unable to stand without assistance and their hesitant walk favored the festinative aspects. […] Over time the daily dosage of levodopa was reduced from the prescribed 6 per day to 2 per day to which a small dose of the dopamine agonist, bromocriptine, was added with singularly beneficial results. Their condition improved to the extent that they were again able to drive themself to the store, buy gasoline, and eat out. Most, most gratifying, indeed!
They were placed on an active bowel treatment program with good results which, when required was supplemented with an enema q.o.d. They continued to be monitored closely.

[6] = test system: Post Chemotherapy Cognitive Impairment (PCCI); test: Clinical case, post chemotherapy cognitive impairment (Example 3); type: in vivo, human; conditions: PCCI patient, oral 5,000 mg daily in divided doses, after a month
Excerpt: patient two is a person who, prior to their diagnosis of breast cancer, has been in charge of the family business involving a host of necessary transactions, including maintenance of financial records and tax liabilities. Post chemotherapy they had profound difficulty remembering what day it was, what time it was, had they taken their morning bath, what to cook for any meal, forgetfulness as to daily chores, transporting their children to school-sponsored events, suddenly breaking telephone conversations with their concerned parent without any recall of the action. The major deficit business-wise was the inability to perform simple mathematical calculations. […] They thought they “was going bonkers!” Their parent inquired as to what could be done to alleviate the rapidly deteriorating family problems. A trial on HEPES was recommended as the symptoms were, at least in part, related to demyelination. They were started on oral HEPES, 5,000 mg daily in divided doses. […] They continue to show improvement in a gratifying manner.

[7] = test system: Cerebral Palsy; test: Clinical case, cerebral palsy patient (Example 2); type: in vivo, human; conditions: oral 5,000 mg daily
Excerpt: patient five is a child of extraction, whose birthing was extremely difficult, and very probably associated with some degree of neonatal asphyxia, although this was not seriously reflected in the Apgar Score. The person has had superb medical care all their life long with loving and supportive parents able to provide recommended therapies.
Despite the abundance of treatment programs, it required nearly five years for […] to walk slowly in an unassisted manner. Amazingly, their speech pattern and intellectual capabilities were remarkably functional. A major problem was their significant dysfunction with motor skills in their hands. M.S. was given an oral dosage of HEPES of 5,000 mg daily (2 tsps with breakfast, 1 tsp mid-afternoon, and 2 tsps at bedtime). […] After 8 months of therapy, their walking and manual skills have improved to 85% of normal. They became devoted to spending several hours daily on the computer and the amount of knowledge they have acquired and retained is, indeed, phenomenal. The change in this young person has been outstanding and truly gratifying to their parents, their siblings, and especially their physicians.

[8] = test system: Benzodiazepine Withdrawal Symptoms; test: Clinical case, benzodiazepine withdrawal symptoms (Example 8); type: in vivo, human
Excerpt: patient five is a person, who was initially placed on benzodiazepine medication for panic attacks which presented. They have been on various forms of medications constituting this group for more than three decades. The dilemma which exists is that often the original condition for which the diazepines are prescribed are considered to be psychiatric in nature. When pain and neurological symptoms appear associated with withdrawal, it is often misdiagnosed with additional medications given which compounds the problem. These medications are recommended for short term treatment (4-6 weeks) only, but as with this patient, usage extends over years. One of the major withdrawal symptoms include violent repetitive “tics” which are considerably worsened with emotional situations and other stressors. Abnormal ideation often takes the form of bizarre thoughts as the functioning of the superego is marked impaired. Thus, these patients do things which under normal conditions would never contemplate, much less act out. As a result of these factors, our patient lost their successful business, their houses, and their family comprised of their spouse and three beautiful daughters. They walk with a hopping motion associated with bizarre flailing movements of the shoulder and arms. On the internet are listings of more than 300 withdrawal symptoms. The present inventors were consulted on this patient to see if we could ameliorate their extreme pain problems. Their neurologic examination was truly strange. […] They were started on HEPES by the oral route. […] They will be closely monitored as to their condition with additional treatment.

[9] = General clinical administration of HEPES: effective dosage and tolerability; type: in vivo, human
Protocol: The product, HEPES, is produced in ultra-pure form and is available from GIBCOL Technologies, Inc. The product is administered on a body weight basis with the determined minimal effective daily dosage of 70-75 mg/kg. The material may be safely given either by oral or parenteral routes. […] The administered product is prepared by a compounding pharmacist, with the dosage of each patient recipient being individualized.

[10] = test system: Cancer of the Pancreas; test: Clinical case, cancer of the pancreas with metastases: analgesic and anti-tumor activity (Example 6); type: in vivo, human
Protocol: The pain was not relieved by passing bowel movements or any other maneuver. They were seen by their personal physician, who diagnosed Type II diabetes mellitus. They were placed on anti-diabetic medication and diet. No additional studies related to the abdominal pain were carried out, even though they were peculiar in a patient with diabetes. Their diabetic state was under satisfactory control with a few weeks, but the abdominal pain problem persisted.
The abdominal pains increased in intensity with new severe pains in the mid-dorsal thoracic spine. […] They underwent radiation treatments for the thoracic lesions which eased, to a limited extent, the pain in this area.
In consultation with the patient ombudsmen group at M. D. Anderson Hospital in Houston, Tex., the family was told that none of the current study protocols were appropriate for their current condition of cancer of the pancreas with wide-spread metastases and such advanced disease. They were given 2-4 months to live. It was recommended that they be treated with pain protocols by the local institutions in the Dallas-Fort Worth area. They were treated by their personal physician who placed them on opiate analgesics for pain control.
In February, 2006, their personal physician contacted the present inventors concerning the possible addition of HEPES as they were receiving the maximal level of opiate medication, which was not controlling the pain the patient was experiencing. In March, 2006, they were placed on a daily dosage of the product administered by intravenous infusion, while continuing their maximum opiate analgesic medication.
In July, 2006, they developed significant anorexia, probably secondary to the increasing levels of endogenous TNF-alpha (cachectic factor). Dronabinol was recommended, but refused by the patient owing to the medication being derived from marijuana. Thereafter, natural source inhibitors of cachectic factor (Table 2) were recommended, but the patient refused to take any of these as they felt these might interfere with the pain control, which was acceptable. They were then offered parenteral nutritional support, which they declined.
From mid-November, 2006, […] developed weakness associated with continued weight loss, and from late November became bed-ridden. […] 2006. While the death certificate lists the cause of death as cancer of the pancreas, in truth the cause of death was terminal anorexia, inanition, and malnutrition, with more than 65 pound weigh loss.

[11] = Example 5 patient, 6,000 mg daily, continued treatment
[12] = continued daily product at 75 mg/kg

O=S(=O)(O)CCN1CCN(CCO)CC1 [HEPES, N-2-hydroxyethylpiperazine-N′-2-ethanesulfonic acid]
frequency of athetotic movements ([1]; 70-75 mg/kg level achieved, end of the first week, 1,300-1,500 per day before): 10-15 per day | frequency of athetotic movements ([1]; end of the second week): 2-3 movements per day | involuntary athetoid movements ([1]; oral medication at the same daily dosage, during the next three weeks, triggered by emotional or stressful circumstances): infrequent involuntary athetoid movements | tics after product withdrawn ([1]; product decreased gradually, no product being given): tic-free | cytotoxicity compared with other buffers [2]: least cytotoxicity of all the known buffers | pain in extremities [3]: completely controlled | weakness in lower extremities [3]: almost completely resolved | motor function and exacerbations on continued medication ([4]; continued on the oral medication): maintained their motor function as well as being free of new exacerbations | ability to write ([4]; oral HEPES 5,000 mg daily, after only three days of treatment): regained the ability to write cursively and sign their name in a legible fashion | muscular fatigue, stiffness, and tics ([5]; Example 4 patient, 5,000 mg daily in divided doses, within a three-week period): all disappeared | patient-reported overall condition ([5]; Example 4 patient, 5,000 mg daily, after another couple of weeks): felt like they were before the diagnosis was made | daily dosage of levodopa needed ([5]; Example 5 patient, 6,000 mg HEPES daily, over time, reduced from the prescribed 6 per day, bromocriptine added): 2 per day | swallowing difficulties and tongue biting ([5]; Example 5 patient, 6,000 mg daily in divided doses, within three days): obviated their swallowing difficulties and abrogated their tongue biting | energy level [5, 11]: improved significantly | facial mask [5, 11]: completely disappeared | brain fog ("cloud") [6]: the “cloud” was gone | walking and manual skills ([7]; after 8 months of therapy): 85 % of normal | movement and control of hands and fingers ([7]; after three weeks): improved to the point where they could selectively (upon oral command) depress the correct key on the computer | walking pattern ([7]; after three weeks): considerable improvement with significant reduction in ataxic characteristics | athetoid movements [8, 12]: significant reduction in their athetoid movements | gait [8, 12]: improved gait | ideation [8, 12]: more cogent ideation | pain (jaws and teeth, shoulder joints and muscles, precordial chest, temples) [8, 12]: significant relief of their pain | dorsiflexion of left foot on neurologic examination ([8]; oral route, after four days on the product): normal dorsiflexion of their left foot | minimal effective daily dosage ([9]; administered on a body weight basis): 70 to 75 mg/kg | side-effects ([9]; general statement on the HEPES product): no side-effects | side-effects ([9]; oral and parenteral routes): without any significant side-effects | opiate side-effects ([10]; HEPES administration with reduced opiate narcotic analgesia): elimination of opiate side-effects | opiate analgesic dosage giving good pain control ([10]; daily intravenous HEPES, narcotic medication slowly reduced over three months): about 25 % of the maximum dosage of the opiate analgesics | pain ([10]; daily intravenous infusion added to maximum opiate analgesic medication, after 5 days): completely controlled | anti-tumor effect ([10]; pancreatic cancer with wide-spread metastases, several additional months of quality living): a significant anti-tumor effect
